Assay results taken from ChEMBL document CHEMBL3885861, “Open TG-GATES”.

Species on record: Rattus norvegicus
Experiment: Open TG-GATES - Regimen: Daily Repeat
Format: toxicity, organism-based, Sprague-Dawley
Design: regimen Daily Repeat, gender Male, age 6 weeks
Details: in vivo, po, 30 mg/kg, […], route gavage, dose level Middle; for KIDNEY_L / KIDNEY_R / KIDNEY_TOTAL: tissue Kidney; for LIVER: tissue Liver; for A/G / ALP / ALT / AST / BUN / CRE / Ca / Cl / DBIL / GLC / IP / K / LDH / Na / PL / RALB / TBIL / TC / TG / TP / gamma-GTP: tissue Plasma

Question: `CCCc1cc(=O)[nH]c(=S)[nH]1` [PROPYLTHIOURACIL] was tested. Which Lym (tissue Blood, time 28 day) did it give?
Answer: Its Lym is 85.2%.

Question: What about the MCH (tissue Blood, time 28 day) of the same compound?
Answer: The MCH was 19.5 pg.

Question: What about the MCHC (tissue Blood, time 28 day) of the same compound?
Answer: The MCHC was 33.7%.

Question: And the MCV (tissue Blood, time 28 day)?
Answer: The MCV was 57.7 fL.

Question: And the Mono (tissue Blood, time 28 day)?
Answer: Its Mono is 3%.

Question: What about the Neu (tissue Blood, time 28 day) of the same compound?
Answer: Its Neu is 10.8%.

Question: And the PT (tissue Blood, time 28 day)?
Answer: Its PT is 14.2 s.

Question: What about the Plat (tissue Blood, time 28 day) of the same compound?
Answer: The Plat was 82.1 x10_4/uL.

Question: And the RBC (tissue Blood, time 28 day)?
Answer: Its RBC is 813.2 x10_4/ul.

Question: And the Ret (tissue Blood, time 28 day)?
Answer: The Ret was 0.6%.

Question: What about the WBC (tissue Blood, time 28 day) of the same compound?
Answer: The WBC was 63 x10_2/uL.

Question: What about the KIDNEY_L (time 7 day) of the same compound?
Answer: The KIDNEY_L was 0.9 g.

Question: What about the KIDNEY_R (time 7 day) of the same compound?
Answer: Its KIDNEY_R is 0.9 g.

Question: And the KIDNEY_TOTAL (time 7 day)?
Answer: The KIDNEY_TOTAL was 1.8 g.

Question: And the KIDNEY_L (time 14 day)?
Answer: Its KIDNEY_L is 0.9 g.

Question: What about the KIDNEY_R (time 14 day) of the same compound?
Answer: Its KIDNEY_R is 0.9 g.

Question: What about the KIDNEY_TOTAL (time 14 day) of the same compound?
Answer: Its KIDNEY_TOTAL is 1.9 g.

Question: What about the KIDNEY_L (time 28 day) of the same compound?
Answer: Its KIDNEY_L is 0.8 g.

Question: What about the KIDNEY_R (time 28 day) of the same compound?
Answer: The KIDNEY_R was 0.8 g.

Question: What about the KIDNEY_TOTAL (time 28 day) of the same compound?
Answer: Its KIDNEY_TOTAL is 1.6 g.

Question: And the LIVER (time 7 day)?
Answer: The LIVER was 12.4 g.

Question: And the LIVER (time 14 day)?
Answer: Its LIVER is 11.5 g.

Question: What about the LIVER (time 28 day) of the same compound?
Answer: Its LIVER is 9.6 g.

Question: What about the A/G (time 7 day) of the same compound?
Answer: Its A/G is 1.7.

Question: What about the ALP (time 7 day) of the same compound?
Answer: The ALP was 735.2 IU/L.

Question: What about the ALT (time 7 day) of the same compound?
Answer: Its ALT is 31.6 IU/L.

Question: What about the AST (time 7 day) of the same compound?
Answer: Its AST is 54.8 IU/L.

Question: What about the BUN (time 7 day) of the same compound?
Answer: The BUN was 21.8 mg/dL.

Question: What about the CRE (time 7 day) of the same compound?
Answer: Its CRE is 0.5 mg/dL.

Question: What about the Ca (time 7 day) of the same compound?
Answer: Its Ca is 11.6 mg/dL.

Question: What about the Cl (time 7 day) of the same compound?
Answer: The Cl was 106 meq/L.

Question: What about the DBIL (time 7 day) of the same compound?
Answer: Its DBIL is 0.018 mg/dL.

Question: What about the GLC (time 7 day) of the same compound?
Answer: Its GLC is 173.6 mg/dL.

Question: And the IP (time 7 day)?
Answer: Its IP is 6.8 mg/dL.

Question: And the K (time 7 day)?
Answer: Its K is 4.6 meq/L.

Question: And the LDH (time 7 day)?
Answer: The LDH was 85.8 IU/L.

Question: What about the Na (time 7 day) of the same compound?
Answer: Its Na is 140.6 meq/L.

Question: And the PL (time 7 day)?
Answer: Its PL is 170.6 mg/dL.

Question: What about the RALB (time 7 day) of the same compound?
Answer: The RALB was 4.2 g/dL.

Question: And the TBIL (time 7 day)?
Answer: The TBIL was 0.3 mg/dL.

Question: And the TC (time 7 day)?
Answer: Its TC is 111.2 mg/dL.

Question: And the TG (time 7 day)?
Answer: The TG was 80.2 mg/dL.

Question: And the TP (time 7 day)?
Answer: Its TP is 6.7 g/dL.

Question: And the gamma-GTP (time 7 day)?
Answer: Its gamma-GTP is 2.2 IU/L.

Question: And the A/G (time 14 day)?
Answer: The A/G was 1.7.

Question: What about the ALP (time 14 day) of the same compound?
Answer: The ALP was 562.2 IU/L.

Question: What about the ALT (time 14 day) of the same compound?
Answer: Its ALT is 27.6 IU/L.

Question: What about the AST (time 14 day) of the same compound?
Answer: Its AST is 51.2 IU/L.

Question: What about the BUN (time 14 day) of the same compound?
Answer: The BUN was 24.2 mg/dL.

Question: And the CRE (time 14 day)?
Answer: Its CRE is 0.7 mg/dL.

Question: And the Ca (time 14 day)?
Answer: Its Ca is 11.5 mg/dL.

Question: What about the Cl (time 14 day) of the same compound?
Answer: The Cl was 106.8 meq/L.

Question: And the DBIL (time 14 day)?
Answer: The DBIL was 0.004 mg/dL.

Question: What about the GLC (time 14 day) of the same compound?
Answer: Its GLC is 180.6 mg/dL.

Question: What about the IP (time 14 day) of the same compound?
Answer: Its IP is 6.4 mg/dL.

Question: What about the K (time 14 day) of the same compound?
Answer: The K was 4 meq/L.

Question: What about the LDH (time 14 day) of the same compound?
Answer: Its LDH is 70.2 IU/L.

Question: And the Na (time 14 day)?
Answer: Its Na is 141.4 meq/L.

Question: What about the PL (time 14 day) of the same compound?
Answer: Its PL is 157.4 mg/dL.

Question: And the RALB (time 14 day)?
Answer: The RALB was 4.3 g/dL.

Question: And the TBIL (time 14 day)?
Answer: Its TBIL is 0.2 mg/dL.

Question: What about the TC (time 14 day) of the same compound?
Answer: Its TC is 103 mg/dL.

Question: What about the TG (time 14 day) of the same compound?
Answer: The TG was 43.4 mg/dL.

Question: What about the TP (time 14 day) of the same compound?
Answer: The TP was 6.9 g/dL.

Question: And the gamma-GTP (time 14 day)?
Answer: The gamma-GTP was 2.2 IU/L.

Question: What about the A/G (time 28 day) of the same compound?
Answer: Its A/G is 2.

Question: And the ALP (time 28 day)?
Answer: Its ALP is 475.4 IU/L.

Question: And the ALT (time 28 day)?
Answer: Its ALT is 34 IU/L.

Question: And the AST (time 28 day)?
Answer: The AST was 58.4 IU/L.

Question: And the BUN (time 28 day)?
Answer: The BUN was 27.2 mg/dL.

Question: What about the CRE (time 28 day) of the same compound?
Answer: Its CRE is 0.7 mg/dL.

Question: What about the Ca (time 28 day) of the same compound?
Answer: Its Ca is 10.8 mg/dL.

Question: And the Cl (time 28 day)?
Answer: Its Cl is 108.8 meq/L.

Question: And the DBIL (time 28 day)?
Answer: Its DBIL is 0.062 mg/dL.

Question: And the GLC (time 28 day)?
Answer: The GLC was 168.6 mg/dL.

Question: What about the IP (time 28 day) of the same compound?
Answer: The IP was 5.4 mg/dL.

Question: What about the K (time 28 day) of the same compound?
Answer: Its K is 4.3 meq/L.

Question: What about the LDH (time 28 day) of the same compound?
Answer: Its LDH is 71.4 IU/L.

Question: What about the Na (time 28 day) of the same compound?
Answer: The Na was 142.2 meq/L.

Question: And the PL (time 28 day)?
Answer: The PL was 165.8 mg/dL.

Question: What about the RALB (time 28 day) of the same compound?
Answer: Its RALB is 4.5 g/dL.

Question: And the TBIL (time 28 day)?
Answer: The TBIL was 0.2 mg/dL.

Question: And the TC (time 28 day)?
Answer: Its TC is 105.4 mg/dL.

Question: And the TG (time 28 day)?
Answer: The TG was 46.8 mg/dL.

Question: And the TP (time 28 day)?
Answer: Its TP is 6.8 g/dL.

Question: And the gamma-GTP (time 28 day)?
Answer: The gamma-GTP was 2.4 IU/L.
